Experimental data as given in patent publication US10987317B2, “Inhibition of glutaminase C” (Cornell University, priority 2009, dated 2021).

Key:
SKBR3 cells = assay: Breast cancer cell soft agar colony formation and growth; assay type: cell-based, human
Method: FIGS. 2A-G illustrate effects of 968 on the transforming activity of constitutively active Rho GTPases and human breast cancer cells. […] Cells are scored after 14 days and plotted as the percentage of the total number of colonies greater than […] in diameter. Data represent the average of 3 experiments (±s.d.). […] Data represent the average of 3 experiments (±s.d.). […] Data represent the average of 3 experiments (±s.d.). […] After 24 hours at 37° C. the migratory cells are fixed, stained with GIEMSA, and counted. Data represent the average of 3 experiments (±s.d.). […] Data represent the average of 3 experiments (±s.d.). […] Data represent the average of 3 experiments (±s.d.). […] Data represent the average of 3 experiments (±s.d.).
(§1) 100%=620 moles of glutamine hydrolyzed per minute per mole of enzyme. Data represent the average of 3 experiments (±s.d.). […] Following precipitation of the beads and re-suspension, the samples are analyzed by Western blotting with anti-V5 antibody. […] Data represent the average of 3 experiments (±s.d.). […] Data represent the average of 3 experiments (±s.d.). […] Data represent the average of 3 experiments (±s.d.). FIG. 3E NIH 3T3 cells transiently expressing Dbl are assayed for focus formation in the presence of 10 μM 968 alone or together with […] dimethyl α-ketoglutarate. […] 100%=680 nM glutamine hydrolyzed per minute per 10^5 cells. Data are the average of 3 experiments (=s.d.). […] 100%=750 nM glutamine hydrolyzed per minute per 10^5 cells. Data represent the average of 3 experiments (±s.d.).

[1] = target: T1, E. coli-expressed mouse ortholog of human GAC (Mus musculus, UniProt D3Z7P3); assay: Recombinant glutaminase activity assay; assay type: biochemical
T1 construct: A plasmid encoding mouse GAC (residues 128-603) was cloned into the pET28a vector; His-tag (N, cleaved yes); made in house; host or cells: E. coli (pET28a)
T1 sequence (D3Z7P3 128-603 isoform D3Z7P3-2): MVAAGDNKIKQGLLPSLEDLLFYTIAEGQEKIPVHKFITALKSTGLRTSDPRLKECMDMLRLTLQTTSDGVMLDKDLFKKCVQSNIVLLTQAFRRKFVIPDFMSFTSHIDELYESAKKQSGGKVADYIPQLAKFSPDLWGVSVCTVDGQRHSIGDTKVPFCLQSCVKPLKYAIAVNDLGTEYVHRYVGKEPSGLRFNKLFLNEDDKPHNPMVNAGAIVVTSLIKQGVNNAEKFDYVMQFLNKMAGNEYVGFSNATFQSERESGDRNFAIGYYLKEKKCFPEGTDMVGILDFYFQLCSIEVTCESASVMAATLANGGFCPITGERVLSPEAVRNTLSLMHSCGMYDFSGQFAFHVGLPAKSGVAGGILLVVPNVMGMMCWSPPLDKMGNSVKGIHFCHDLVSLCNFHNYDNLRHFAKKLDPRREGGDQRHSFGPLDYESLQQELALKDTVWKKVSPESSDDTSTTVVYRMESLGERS
Method: as §1
The activity of the E. coli-expressed recombinant mouse ortholog of human GAC are assayed in the presence of 0 (●), 10 (∇) or 20 (▪) μM 968 and inorganic phosphate in the form of dipotassium hydrogen phosphate. […] The data are plotted as GA activity as function of varying concentrations of glutamine or inorganic phosphate. The data are the average of 3 experiments and are plotted as mean±SEM.
Glutaminase activity assays were performed on recombinant enzyme as previously described (Kenny et al., “Bacterial Expression, Purification and Characterization of Rat Kidney-Type Mitochondrial Glutaminasc,” Protein Expr. Purif 31:140-148 (2003), which is hereby incorporated by reference in its entirety). A plasmid encoding mouse GAC (residues 128-603) was cloned into the pET28a vector and the protein was expressed with an N-terminal histidine (His)-tag. The tag was cleaved using thrombin and the protein was further purified by anion-exchange and gel-filtration chromatography. […] The reaction mixture was incubated at room temperature for 45 minutes and the absorbance at 340 nm was recorded for each sample against a water blank. The absorbance of the sample with just the cocktail mixture was subtracted from each reading to calculate the activity of the enzyme.

With CN(C)c1ccc(C2Nc3ccc4ccccc4c3C3=C2C(=O)CC(C)(C)C3)cc1Br (centres unmarked) [Compound 968, 5-[3-bromo-4-(dimethylamino)phenyl]-2,2-dimethyl-2,3,5,6-tetrahydrobenzo[a]] the “colony formation in soft agar” value (SKBR3 cells; 10 μM) was “inhibits”, the “growth to high density and in low serum” value (SKBR3 cells; 10 μM) was “inhibits” and the “reversal of 968-inhibition by cell-permeable analog of α-ketoglutarate” value (SKBR3 cells; growth in low serum, 10 μM 968 with 7 μM dimethyl α-ketoglutarate) was “circumvented”. For the same molecule, the “inhibition of enzymatic activity of purified GAC” value [1] was “inhibits” and the “mode of inhibition versus glutamine and inorganic phosphate” value ([1]; 0, 10 or 20 μM) was “neither competitive versus substrate (glutamine) nor inorganic phosphate”.
